# Measured values published in US20040023972A1, “Use of substituted imidazo[1,2-a]-pyridin-, -pyrimidin-and-pyrazin-3-yl-amine derivatives in the preparation of medicaments for inhibiting NOS” (Gruenenthal GmbH, priority 2000, published 2004).
# Target: T1, NO synthase (Rattus norvegicus, UniProt P29476)
# T1 construct: the supernatant was then removed by decantation and frozen in portions at −80° C; from tissue; host or cells: rat cerebellum, 20,000 g supernatant of homogenate
# Assay: HTS-NOS assay (NOS assay): conversion of radioactive arginine, cation-exchanger filter plate
# Format: biochemical
# Conditions: 10 μM
# Procedure, shortened: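 Percent inhibition was derived by comparing remaining radioactive arginine with compound-free controls. Arginine retained on phosphate cation-exchanger filters was counted after citrulline washout, following a 5-60 min room-temperature (25 °C) reaction of labelled arginine, NADPH-containing medium and rat cerebellar homogenate supernatant.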
row,SMILES,HTS-NOS assay: % inhibition (10 μM) [%]
1,"C#[N+]CCCCCCNc1c(-c2ccccc2C)nc2cc(C)cc(C)n12 [Example 106, [6-(5,7-Dimethyl-2-o-tolyl-imidazo[1,2-a]-pyridin-3-ylamino)-hexyl]-methylidyne-ammonium]",60
2,"CC(=O)OCc1ccc(-c2nc3cc(C)ccn3c2NC2CCCCC2)o1 [Example 58, Acetic acid 5-(3-cyclohexylamino-7-methyl-imidazo[1,2-a]pyridin-2-yl)-furan-2-yl methyl ester]",64
3,"[C-]#[N+]CCCCCCNc1c(-c2cccc(O)c2)nc2c(C)cccn12 [Example 131, {6-[2-(3-Hydroxy-phenyl)-8-methyl-imidazo[1,2-a]pyridin-3-ylamino]-hexyl}-methylidyne-ammonium]",55
4,"[C-]#[N+]CCCCCCN(C(C)=O)c1c(-c2cccnc2)nc2cc(C)cc(C)n12 [Example 232, {6-[acetyl-(5,7-dimethyl-2-pyridin-3-yl-imidazo[1,2-a]pyridin-3-yl)-amino]-hexyl}-methylidyne-ammonium]",59
5,"C#[N+]CCCCCCNc1c(C2CCCCC2)nc2cc(C)cc(C)n12 [Example 88, [6-(2-Cyclohexyl-5,7-dimethyl-imidazo[1,2-a]pyridin-3-ylamino)-hexyl]-methylidyne-ammonium]",57

# Same assay, conditions: Table 5; concentration not given
row,NOS assay % inhibition [%],SMILES
1,50,"Cc1cc(C)n2c(NC(C)(C)CC(C)(C)C)c(-c3ccoc3)nc2c1.Cl [Example 308, (2-Furan-3-yl-5,7-dimethyl-imidazo[1,2-a]-pyridin-3-yl)-(1,1,3,3-tetramethyl-butyl)-amine hydrochloride]"
2,74,"Cc1cc(C)n2c(NC(C)(C)CC(C)(C)C)c(-c3ccsc3)nc2c1.Cl [Example 312, (5,7-Dimethyl-2-thiophen-3-yl-imidazo[1,2-a]-pyridin-3-yl)-(1,1,3,3-tetramethyl-butyl)-amine hydrochloride]"

# Same assay, conditions: read-out: HTS-NOS assay: % inhibition (10 μM)
row,inhibition at 10 µM [%],SMILES
1,57,"Cc1cc(C)n2c(Nc3c(C)cccc3C)c(-c3cc4ccccc4o3)nc2c1 [Example 57, (2-Benzofuran-2-yl-5,7-dimethyl-imidazo[1,2-a]pyridin-3-yl)-(2,6-dimethyl-phenyl)-amine]"
2,52,"CC(=O)N(c1c(-c2ccc(C(=O)O)s2)nc2cnccn12)C(C)(C)CC(C)(C)C [Example 205, 5-{3-[acetyl-(1,1,3,3-tetramethyl-butyl)-amino]-imidazo[1,2-a]pyrazin-2-yl}-thiophene-2-carboxylic acid]"
3,51,"CC(=O)N(c1c(-c2c(F)cccc2Cl)nc2cccc(C)n12)C1CCCCC1 [Example 254, N-[2-(2-chloro-6-fluoro-phenyl)-5-methyl-imidazo[1,2-a]pyridin-3-yl]-N-cyclohexyl-acetamide]"
4,32,"CCc1ccn2c(NCc3ccccc3OC)c(-c3ccc(C)o3)nc2c1 [Example 315, [7-Ethyl-2-(5-methyl-furan-2-yl)-imidazo[1,2-a]pyridin-3-yl]-(2-methoxy-benzyl)-amine]"
5,60,"Cc1cc(C)n2c(NC(C)(C)CC(C)(C)C)c(-c3ccncc3)nc2c1 [Example 3, (5,7-Dimethyl-2-pyridin-4-yl-imidazo[1,2-a]-pyridin-3-yl)-(1,1,3,3-tetramethyl-butyl)-amine]"
6,64,"Cc1ccn2c(NC3CCCCC3)c(-c3ccco3)nc2c1 [Example 141, Cyclohexyl-(2-furan-2-yl-7-methyl-imidazo[1,2-a]pyridin-3-yl)-amine]"
7,53,"CC(=O)N(c1c(-c2cc(C)c(C)o2)nc2cccc(C)n12)C(C)(C)CC(C)(C)C [Example 222, N-[2-(4,5-dimethyl-furan-2-yl)-5-methyl-imidazo[1,2-a]pyridin-3-yl]-N-(1,1,3,3-tetramethyl-butyl)-acetamide]"
8,59,"CCc1ccn2c(Nc3ccc(F)c(Cl)c3)c(-c3ccc(C)o3)nc2c1 [Example 317, (3-Chloro-4-fluoro-phenyl)-[7-ethyl-2-(5-methyl-furan-2-yl)-imidazo[1,2-a]pyridin-3-yl]-amine]"
